According to US20230203026A1, “PESTICIDAL COMPOSITIONS AND METHODS” (CORTEVA AGRISCIENCE LLC, priority 2017, published 2023):

Columns and labels:
[1] = tested on: Cabbage Looper (Trichloplusia ni, TRIPNI) ("CL"); assay: Insecticidal test for cabbage looper, 128-well diet tray assay; type: in vivo; conditions: Trichoplusia ni, 168 h; 50 μg/cm^2 of test compound on artificial diet; second instar CL larvae; 25° C.; five to seven days; average of eight wells; read-out: CL % Control (or Mortality) rating
Protocol: Insecticidal Test for Cabbage Looper (Trichloplusia ni, TRIPNI) (“CL”)
(§1) Bioassays on cabbage looper (CL; Trichloplusia ni: Lepidoptera) are conducted using a 128-well diet tray assay. One to five second instar CL larvae are placed in each well (3 mL) of the diet tray that had been previously filled with 1 mL of artificial diet to which 50 μg/cm^2 of the test compound (dissolved in 50 μL of 90:10 acetone-water mixture) had been applied (to each of eight wells) and then allowed to dry. Trays are covered with a clear self-adhesive cover, vented to allow gas exchange, and held at 25° C., 14:10 light-dark for five to seven days. Percent mortality is recorded for the larvae in each well; activity in the eight wells is then averaged.

[2] = tested on: beet armyworm (Spodoptera exigua, LAPHEG) ("BAW"); assay: Insecticidal test for beet armyworm, 128-well diet tray assay; type: in vivo; conditions: 168 h, 50 μg/cm^2 of test compound on artificial diet, second instar BAW larvae, 25° C., five to seven days, average of eight wells, read-out: BAW % Control (or Mortality) rating
Protocol: Insecticidal test for beet armyworm (Spodoptera exigua, LAPHEG) (“BAW”)
as §1, with “beet armyworm (BAW; Spodoptera exigua:” for “cabbage looper (CL; Trichloplusia ni:”, “BAW” for “CL”

Row | SMILES | mortality at 50 µg/cm2 [1] | mortality at 50 µg/cm2 [2]
1 | Cc1ccc(C(C)C)c(N2C(=O)CS/C2=N\C(=O)NOC(C)c2ccc(-c3ncn(-c4ccc(OC(F)(F)C(F)(F)F)cc4)n3)cc2)c1 (centres unmarked) [A34, (Z)-1-(3-(2-Isopropyl-5-methylphenyl)-4-oxothiazolidin-2-ylidene)-3-(1-(4-(1-(4-(perfluoroethoxy)phenyl)-1H-1,2,4-triazol-3-yl)phenyl)ethoxy)urea] | 50 to 100% | 50 to 100%
2 | Cc1ccc(C(C)C)c(N2C(=O)CS/C2=N\C(=O)ON(Cc2ccc(-c3ncn(-c4ccc(OC(F)(F)F)cc4)n3)cc2)C(=O)OC(C)(C)C)c1 [A35, tert-Butyl (Z)-(((3-(2-isopropyl-5-methylphenyl)-4-oxothiazolidin-2-ylidene)carbamoyl)oxy)(4-(1-(4-(trifluoromethoxy)phenyl)-1H-1,2,4-triazol-3-yl)benzyl)carbamate] | 0% | 0%
3 | CC(C)c1ccc(Cl)cc1N1C(=O)CS/C1=N\C(=O)NN(C)C(C)c1ccc(-c2ncn(-c3ccc(OC(F)(F)F)cc3)n2)cc1 (centres unmarked) [A36, (Z)—N-(3-(5-Chloro-2-isopropylphenyl)-4-oxothiazolidin-2-ylidene)-2-methyl-2-(1-(4-(1-(4-(trifluoromethoxy)phenyl)-1H-1,2,4-triazol-3-yl)phenyl)ethyl)hydrazine-1-carboxamide] | 50 to 100% | 50 to 100%
4 | Cc1ccc(C(F)(F)F)c(N2C(=O)CS/C2=N\C(=O)NN(C)C(C)c2ccc(-c3ncn(-c4ccc(OC(F)(F)F)cc4)n3)cc2)c1 (centres unmarked) [A37, (Z)-2-Methyl-N-(3-(5-methyl-2-(trifluoromethyl)phenyl)-4-oxothiazolidin-2-ylidene)-2-(1-(4-(1-(4-(trifluoromethoxy)phenyl)-1H-1,2,4-triazol-3-yl)phenyl)ethyl)hydrazine-1-carboxamide] | 50 to 100% | 50 to 100%
5 | Cc1ccc(OCC(F)(F)F)c(N2C(=O)CS/C2=N\C(=O)NN(C)C(C)c2ccc(-c3ncn(-c4ccc(OC(F)(F)F)cc4)n3)cc2)c1 (centres unmarked) [A38, (Z)-2-Methyl-N-(3-(5-methyl-2-(2,2,2-trifluoroethoxy)phenyl)-4-oxothiazolidinylidene)-2-(1-(4-(1-(4-(trifluoromethoxy)phenyl)-1H-1,2,4-triazolyl)phenyl)ethyl)hydrazine-1-carboxamide] | 50 to 100% | 50 to 100%
6 | Cc1ccc(C(C)C)c(N2C(=O)CS/C2=N\C(=O)ON(C)Cc2ccc(-c3ncn(-c4ccc(OC(F)(F)F)cc4)n3)cc2)c1 [A39, (Z)-3-(2-isopropyl-5-methylphenyl)-2-((((methyl(4-(1-(4-(trifluoromethoxy)phenyl)-1H-1,2,4-triazol-3-yl)benzyl)amino)oxy)carbonyl)imino)thiazolidin-4-one] | 50 to 100% | 50 to 100%
7 | Cc1ccc(C(C)C)c(N2C(=O)CS/C2=N\C(=O)ONCc2ccc(-c3ncn(-c4ccc(OC(F)(F)F)cc4)n3)cc2)c1 [A40, (Z)-3-(2-isopropyl-5-methylphenyl)-2-(((((4-(1-(4-(trifluoromethoxy)phenyl)-1H-1,2,4-triazol-3-yl)benzyl)amino)oxy)carbonyl)imino)thiazolidin-4-one] | 50 to 100% | 50 to 100%
